The structures appear in SMILES notation.

Holding throughout (type): in vivo
Assay [1] deals with Alopecurus myosuroides (ALOMY). Briefly: Pre-emergence biological efficacy, glasshouse pot test. To be noted: 312 h, pre-emergence, 1,000 g/ha, evaluated after 13 days (100=total damage; 0=no damage), read-out: Percentage damage ALOMY. The essentials:
(§1)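 Scores on a 0–100 damage scale were taken 13 days after spraying. Application rate 1000 or 250 g/ha, one day after sowing, in acetone/water-based aqueous spray containing 0.5% Tween 20.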

Assay [2] deals with Amaranthus retoflexus (AMARE). The assay is described as above. As to conditions: Amaranthus retroflexus, 312 h; pre-emergence, 1,000 g/ha, evaluated after 13 days (100=total damage; 0=no damage); read-out: Percentage damage AMARE. In a few lines:
as §1

In assay [3] the test system is Echinochloa crus-galli (ECHCG). The description is as above. To be noted: 312 h, pre-emergence, 1,000 g/ha, evaluated after 13 days (100=total damage; 0=no damage), read-out: Percentage damage ECHCG. In a few lines:
as §1

Assay [4] deals with Ipomea hederaceae (IPOHE). The assay is described as above. To be noted: Ipomoea hederacea, 312 h; pre-emergence, 1,000 g/ha, evaluated after 13 days (100=total damage; 0=no damage); read-out: Percentage damage IPOHE. In a few lines: as §1
Assay [5] relates to Setaria faberi (SETFA). The description is as above. As to conditions: 312 h, pre-emergence, 1,000 g/ha, evaluated after 13 days (100=total damage; 0=no damage), read-out: Percentage damage SETFA. In a few lines: as §1
Assay [6] relates to Solanum nigrum (SOLNI). The description is as above. To be noted: 312 h, pre-emergence, 1,000 g/ha, evaluated after 13 days (100=total damage; 0=no damage), read-out: Percentage damage SOLNI. The essentials:
as §1

Assay [7] deals with Alopecurus myosuroides (ALOMY). Briefly: Post-emergence biological efficacy, glasshouse pot test. As to conditions: 312 h, post-emergence, 1,000 g/ha, evaluated after 13 days (100=total damage; 0=no damage), read-out: Percentage damage caused to weed species, ALOMY. In a few lines: (§2)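 Scored 13 days after spraying on a 0 (no damage) to 100 (total damage) scale. Treatment was a post-emergence spray at 1000 or 250 g/ha, from acetone/water 50:50 plus 0.5% Tween 20, onto 8-day-old plants in soil pots. Growth at 24/16° C, 14 h photoperiod, 65% humidity, watered twice daily.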

Assay [8] concerns Amaranthus retoflexus (AMARE). Described as above. As to conditions: Amaranthus retroflexus, 312 h; post-emergence, 1,000 g/ha, evaluated after 13 days (100=total damage; 0=no damage); read-out: Percentage damage caused to weed species, AMARE. The essentials:
as §2

Assay [9] concerns Echinochloa crus-galli (ECHCG). Described as above. As to conditions: 312 h, post-emergence, 1,000 g/ha, evaluated after 13 days (100=total damage; 0=no damage), read-out: Percentage damage caused to weed species, ECHCG. The essentials:
as §2

Assay [10] deals with Ipomea hederaceae (IPOHE). Described as above. As to conditions: Ipomoea hederacea, 312 h; post-emergence, 1,000 g/ha, evaluated after 13 days (100=total damage; 0=no damage); read-out: Percentage damage caused to weed species, IPOHE. In a few lines: as §2
In assay [11] the test system is Setaria faberi (SETFA). The assay is described as above. As to conditions: 312 h, post-emergence, 1,000 g/ha, evaluated after 13 days (100=total damage; 0=no damage), read-out: Percentage damage caused to weed species, SETFA. The essentials:
as §2

The subject of assay [12] is Solanum nigrum (SOLNI). The assay is described as above. To be noted: 312 h, post-emergence, 1,000 g/ha, evaluated after 13 days (100=total damage; 0=no damage), read-out: Percentage damage caused to weed species, SOLNI. In a few lines: as §2

Turning to `COC(=O)c1nc(C2CC2)nc(NCc2ccccc2N2CCOCC2)c1Cl` [Compound 4-88, 5-Chloro-2-cyclopropyl-6-methoxycarbonyl-4-(2-morpholin-4-yl-phenylmethyl-amino)-pyrimidine], the pest or weed control at 1000 g/ha in [1] was found to be 40%; in assay [2], 70%; in assay [3], 50%; in assay [4], 100%; in assay [5], 20%; in [6] it was 70%. Besides, the pest or weed control at 1000 g/ha worked out at 50% in assay [7]; 100% in [8]; 60% in [9]; 80% in assay [10]; 60% in assay [11]; 80% in assay [12].

On to `COC(=O)c1nc(C2CC2)nc(NCc2ccccc2[N+](=O)[O-])c1Cl` [Compound 4-90, 5-Chloro-2-cyclopropyl-6-methoxycarbonyl-4-(2-nitrophenyl-methylamino)-pyrimidine], for which the pest or weed control at 1000 g/ha in assay [1] was determined as 50%; in assay [2], 100%; in assay [3], 60%; in [4], 100%; in assay [5], 80%; in [6] it was 100%. Moreover, the pest or weed control at 1000 g/ha is 50% in assay [7]; 100% in assay [8]; 80% in assay [9]; 100% in [10]; 100% in assay [11]; 100% in assay [12].

For the compound `COC(=O)c1nc(C2CC2)nc(NCc2cccc([N+](=O)[O-])c2)c1Cl` [Compound 4-91, 5-Chloro-2-cyclopropyl-6-methoxycarbonyl-4-(3-nitrophenyl-methylamino)-pyrimidine], the pest or weed control at 1000 g/ha in [1] was 10%; in assay [2] it was 50%; in [3], 20%; in [4], 60%; in assay [5], 20%; in [6], 50%. Moreover, the pest or weed control at 1000 g/ha stood at 50% in assay [7]; 100% in [8]; 80% in [9]; 100% in assay [10]; 90% in [11]; 100% in assay [12].

Regarding `COC(=O)c1nc(C2CC2)nc(NCc2ccc(S(N)(=O)=O)cc2)c1Cl` [Compound 4-93, 4-(4-Aminosulphonyl-phenyl)methylamino-5-chloro-2-cyclopropyl-6-methoxycarbonyl-pyrimidine], the pest or weed control at 1000 g/ha in assay [1] was 0%; in assay [2], 30%; in assay [3], 0%; in [4], 40%; in assay [5], 0%; in assay [6] it was 0%. For the same compound, the pest or weed control at 1000 g/ha in assay [7] came to 0%; in [8], 30%; in assay [9] it was 0%; in [10], 70%; in assay [11], 0%; in [12], 50%.

`COC(=O)c1ccc(CNc2nc(C3CC3)nc(C(=O)OC)c2Cl)cc1` [Compound 4-94, 5-Chloro-2-cyclopropyl-6-methoxycarbonyl-4-(4-methoxy-carbonylphenyl-methylamino)-pyrimidine]: the pest or weed control at 1000 g/ha in assay [1] came out at 10%; in assay [2], 70%; in assay [3], 10%; in assay [4], 50%; in [5], 10%; in assay [6], 80%. Besides, the pest or weed control at 1000 g/ha stood at 10% in assay [7]; 100% in assay [8]; 10% in assay [9]; 100% in [10]; 30% in [11]; 90% in assay [12].

For the compound `COC(=O)c1nc(C2CC2)nc(NCc2cccc(-c3ccccc3)c2)c1Cl` [Compound 4-95, 5-Chloro-2-cyclopropyl-6-methoxycarbonyl-4-(3-phenylphenyl-methylamino)-pyrimidine], the pest or weed control at 1000 g/ha in assay [1] turned out to be 10%; in [2] it was 60%; in [3], 10%; in assay [4], 30%; in [5] it was 10%; in assay [6], 30%. Further, the pest or weed control at 1000 g/ha in [7] was 20%; in [8] it was 90%; in assay [9] it was 60%; in assay [10], 100%; in assay [11], 60%; in [12], 80%.

For `COC(=O)c1nc(C2CC2)nc(NCc2cccc(F)c2F)c1Cl` [Compound 4-96, 5-Chloro-2-cyclopropyl-4-(2,3-difluorophenyl-methylamino)-6-methoxycarbonyl-pyrimidine], the pest or weed control at 1000 g/ha in [1] worked out at 10%; in assay [2] it was 60%; in assay [3], 20%; in assay [4], 50%; in assay [5], 30%; in assay [6], 60%. Moreover, the pest or weed control at 1000 g/ha came out at 20% in assay [7]; 100% in [8]; 80% in assay [9]; 100% in assay [10]; 90% in [11]; 100% in assay [12].

As to `COC(=O)c1nc(C2CC2)nc(NCc2ccc(F)cc2F)c1Cl` [Compound 4-97, 5-Chloro-2-cyclopropyl-4-(2,4-difluorophenyl-methylamino)-6-methoxycarbonyl-pyrimidine], the pest or weed control at 1000 g/ha in assay [1] is 20%; in assay [2], 40%; in assay [3] it was 40%; in assay [4], 60%; in assay [5], 40%; in assay [6] it was 50%. For the same compound, the pest or weed control at 1000 g/ha in [7] amounted to 20%; in assay [8] it was 100%; in assay [9] it was 80%; in [10], 100%; in [11], 90%; in assay [12], 100%.

With `COC(=O)c1nc(C2CC2)nc(NCc2cc(F)ccc2F)c1Cl` [Compound 4-98, 5-Chloro-2-cyclopropyl-4-(2,5-difluorophenyl-methyl-amino)-6-methoxycarbonyl-pyrimidine], the pest or weed control at 1000 g/ha came to 30% in assay [1]; 50% in assay [2]; 20% in [3]; 60% in assay [4]; 30% in [5]; 60% in assay [6]. In addition, the pest or weed control at 1000 g/ha in [7] came out at 40%; in assay [8], 100%; in [9], 80%; in assay [10], 100%; in assay [11], 100%; in assay [12] it was 100%.

For the origin of these results see patent publication US20110086759A1, “CHEMICAL COMPOUNDS” (SYNGENTA CROP PROTECTION, INC., priority 2007, published 2011).
